Converted amounts (≈) assume the structure as drawn. Like-named read-outs stand apart in the source and are kept apart here. Where no end group is shown, it is not given here.
Columns and labels:
[1] = system: S. aureus strain Smith diffuse (SD), adherent organisms
[2] = system: S. aureus strain Smith diffuse (SD), adherent organisms; assay: microbe, parasite or virus in culture; conditions: Staphylococcus aureus
[3] = system: S. aureus strain Smith diffuse; assay: Rat central venous catheter (CVC)-associated infection model, lock technique; conditions: day seven; for Quantitative blood culture / Quantitative catheters/venous tissues culture: mean ± S.D.; for Antimicrobial activity in quantitative peripheral blood cultures (in words): at concentration of MBC for adherent cells, compared with untreated control
[4] = system: S. aureus strain Smith diffuse (SD), planktonic organisms; assay: Susceptibility testing by classical method (microbroth dilution, MIC/MBC, planktonic organisms); assay type: cell-based; conditions: 10 μg of RIP pre-treatment (in 10 μL MH broth/well), 30 minutes
From the text: (§1) Organisms: The inventors chose the S. aureus strain Smith diffuse (SD).
National Committee for Clinical Laboratory Standards, Fifth Edition, Approved Standard M7-A5, Wayne, Pa. (2001).

[5] = system: S. aureus strain Smith diffuse (SD) biofilm; assay: Adherent biofilm formation (crystal violet, OD 570 nm); assay type: cell-based; conditions: with addition of RIP into each well; data not shown
Procedure: as §1
Adherent biofilm formation for susceptibility testing: To develop a biofilm, 50 μL of Triptic Soy broth (“TSB”) containing 10^6 CFU/mL of bacteria was added under aseptic conditions to each well of a tissue culture-treated polystyrene 96-well plate containing 150 μL of TSB-2% glucose. […] To evaluate the formation of adherent biofilm, the remaining attached bacteria were fixed with 0.2 mL of 99% methanol per well, and after 15 min, plates were emptied and left to dry. […] Stepanovic et al., J Microbiol Methods 40:175-179 (2000); and Christensen et al., J Clin Microbiol 22:996-1006 (1985). The plates were air dried. The dye bound to the adherent cells was solubilized with 0.2 mL of 33% (v/v) glacial acetic acid per well.

[6] = 10 μg of RIP pre-treatment (in 10 μL MH broth/well), 30 minutes
[7] = read-out: MBC, adherent organisms, 10 μg of RIP pre-treatment (in 10 μL MH broth/well), 30 minutes
[8] = read-out: MBC, adherent organisms, without RIP pre-treatment
[9] = read-out: MIC, adherent organisms, 10 μg of RIP pre-treatment (in 10 μL MH broth/well), 30 minutes
[10] = read-out: MIC, adherent organisms, without RIP pre-treatment
[11] = antibiotic lock 8.00 μg/ml (MBC for adherent cells), 1 hour dwell
[12] = antibiotic lock 1,024 μg/ml, 1 hour dwell

Row | Compound | MIC, adherent organisms [1, 6] | MIC, adherent organisms ([1]; without RIP pre-treatment) | MBC [2, 7] | MBC [2, 8] | MIC [2, 9] | MIC [2, 10] | Quantitative blood culture [3, 11] | Quantitative catheters/venous tissues culture [3, 11] | Quantitative blood culture [3, 12] | Quantitative catheters/venous tissues culture [3, 12] | MBC, planktonic organisms [4] | MIC, planktonic organisms [4] | Antimicrobial activity in quantitative peripheral blood cultures (in words) [3] | Slime production (photometrical method) [5] | Quantitative blood culture ([3]; RIP-impregnated CVC alone) | Quantitative catheters/venous tissues culture ([3]; RIP-impregnated CVC alone)
1 | C[C@@H](O)[C@H]1C(=O)N2C(C(=O)O)=C(SCCN=CN)C[C@H]12 [Imipenem, imipenem] | 0.50 µg/mL (≈ 1.67 µM) | 1.00 µg/mL (≈ 3.34 µM) | 2 µg/mL (≈ 6.68 µM) | 8 µg/mL (≈ 26.7 µM) | 0.5 µg/mL (≈ 1.67 µM) | 1 µg/mL (≈ 3.34 µM) | 5.8 × 10^3 ± 1.2 × 10^3 CFU/ml | 6.9 × 10^6 ± 2.1 × 10^6 CFU/ml | 5.7 × 10^1 ± 1.2 × 10^1bc CFU/ml | 6.0 × 10^5 ± 1.9 × 10^5bc CFU/ml | 1.00 µg/mL (≈ 3.34 µM) | 0.50 µg/mL (≈ 1.67 µM) |  |  |  | 
2 | CN[C@H](CC(C)C)C(=O)N[C@H]1C(=O)N[C@@H](CC(N)=O)C(=O)N[C@H]2C(=O)N[C@H]3C(=O)N[C@H](C(=O)N[C@H](C(=O)O)c4cc(O)cc(O)c4-c4cc3ccc4O)[C@H](O)c3ccc(c(Cl)c3)Oc3cc2cc(c3O[C@@H]2O[C@H](CO)[C@@H](O)[C@H](O)[C@H]2O[C@H]2C[C@](C)(N)[C@H](O)[C@H](C)O2)Oc2ccc(cc2Cl)[C@H]1O [Vancomycin] | 1.00 µg/mL (≈ 0.69 µM) | 2.00 µg/mL (≈ 1.38 µM) | 2 µg/mL (≈ 1.38 µM) | 16 µg/mL (≈ 11 µM) | 1 µg/mL (≈ 0.69 µM) | 2 µg/mL (≈ 1.38 µM) |  |  | 5.3 × 10^1 ± 1.1 × 10^1bc CFU/ml | 5.4 × 10^5 ± 1.6 × 10^5bc CFU/ml | 2.00 µg/mL (≈ 1.38 µM) | 1.00 µg/mL (≈ 0.69 µM) | weak antimicrobial activity |  |  | 
3 | YSPWTNF-NH2 [RIP, YSPWTNF-NH2] |  |  |  |  |  |  |  |  |  |  |  |  |  | much lower | 3.4 × 10^1 ± 0.8 × 10^1b CFU/ml | 1.4 × 10^3 ± 0.3 × 10^3b CFU/ml
4 | O=C(O)c1cn(C2CC2)c2cc(N3CCNCC3)c(F)cc2c1=O [Ciprofloxacin, ciprofloxacin] |  |  |  |  |  |  |  |  | 6.6 × 10^1 ± 1.4 × 10^1bc CFU/ml | 7.4 × 10^5 ± 2.1 × 10^5bc CFU/ml |  |  | weak antimicrobial activity |  |  | 
